Data taken from article PMC9506633, “Design, synthesis, anti-proliferative evaluation, docking, and MD simulations studies of new thiazolidine-2,4-diones targeting VEGFR-2 and apoptosis pathway” (PLoS ONE, 2022).
“Also recorded” adds a separate entry of the source.

Assays:
[1] = Safety assay: cytotoxicity against Vero non-cancer cell line; assay type: cell-based; conditions: African green monkey, Vero cells (non-cancer cell line); Vero normal cell line
Experimental: In this work, the safety pattern of the synthesized derivatives 10a, b and 14a-c was also evaluated by testing their in vitro cytotoxicity against Vero non-cancer cell line using the MTT assay protocol.
Section in S1 File.
Mammalian cell lines culture […]
(§1) The cultured media were supplemented with 200 mM L-glutamine, 10.0% fetal bovine serum (Lonza), and 1.0% penicillin/streptomycin. Cells were seeded into 25.0 cm tissue culture flasks and incubated at 37 ◦C in a 5.0% CO 2 incubator for 24 h or till confluency.
(§2) The safety profiles of the tested compounds were checked on one non-cancerous cell line (Vero) to […]
of 100.0 µl of 6×10^4 cell/ml cells was seeded in to each well of a 96-well plate and then the plates were incubated at 37 °C in a humidified 5.0% CO2 incubator for 24 h. At the end of incubation period, the exhausted medium was replaced with 100.0 µl of different concentrations of the designated treatment (prepared in RPMI medium starting from 1.0 mM). The inoculated plates were incubated at the same growth conditions for another 24 h. At the end of incubation, cellular viability was assessed using MTS assay kit (Promega) according to the manual instruction. […]

Caco-2 = test: MTT anti-proliferative assay, Caco-2; assay type: cell-based; conditions: Homo sapiens; Caco-2 cell line, MTT; read-out: Anti-proliferative activity (IC50 μM) Caco2
Experimental: (§3) The cytotoxicity effects of the synthesized candidates were evaluated against A549, Caco-2, HepG2, and MDA-mb-231 cell lines. MTT assay method was applied using the sub-IC50 concentrations of each compound as the treatment dose. Doxorubicin was used as a reference molecule. […] Also, it was noticed that Caco-2 was the most sensitive cell line.
(§4) The synthesized compounds were evaluated for their anti-proliferative activities against A549, Caco-2, HepG2, and MDA-mb-231 cell lines using the MTT assay protocol as described in S.1.2. Section in S1 File.
(§5) Mammalian cell lines culture
as §1, with “CaCo-2, and A549 cell lines were cultured on DMEM media, meanwhile MDA-MB-231 and hepG-2 cell line were cultured on RBMI media. The” for “The”
as §2
(§6) of 100.0 µl of 6×10^4 cell/ml cells was seeded in to each well of a 96-well plate and then the plates were incubated at 37 °C in a humidified 5.0% CO2 incubator for 24 h. At the end of incubation period, the exhausted medium was replaced with 100.0 µl of different concentrations of the designated treatment (prepared in RPMI medium starting from 1.0 mM). The inoculated plates were incubated at the same growth conditions for another 24 h. At the end of incubation, cellular viability was assessed using MTS assay kit (Promega) according to the manual instruction.
(§7) S.1.2. In-vitro anticancer activity
(§8) Anticancer activities of the tested compounds against CaCo-2, MDA-MB-231, and hepG-2 cell lines were quantified using MTS assay kit (Promega) as described by the Manufacturer. […]

[2] = MTT anti-proliferative assay, Caco-2; assay type: cell-based; conditions: African green monkey (Vero); human (Caco-2); SI = Cytotoxicity against Vero cells / Cytotoxicity against Caco-2 cell line; read-out: Selectivity index (Caco-2)
Experimental: as §3, §4, §5
as §1, with “CaCo-2, and A549 cell lines were cultured on DMEM media, meanwhile MDA-MB-231 and hepG-2 cell line were cultured on RBMI media. The” for “The”
as §2, §6, §7, §8

MDA-mb-231 = test: MTT anti-proliferative assay, MDA-mb-231; assay type: cell-based; conditions: for IC50: Homo sapiens, MDA-mb-231 cell line, MTT; for Selectivity index (MDA-MB-231): SI = Cytotoxicity against Vero cells / Cytotoxicity against MDA-MB-231 cell line
Experimental: as §3, §4, §5
as §1, with “CaCo-2, and A549 cell lines were cultured on DMEM media, meanwhile MDA-MB-231 and hepG-2 cell line were cultured on RBMI media. The” for “The”
as §2, §6, §7, §8

A549 = test: MTT anti-proliferative assay, A549; assay type: cell-based; conditions: for IC50: Homo sapiens, A549 cell line, MTT; for Selectivity index (A549): SI = Cytotoxicity against Vero cells / Cytotoxicity against A549 cell line
Experimental: as §3, §4, §5
as §1, with “CaCo-2, and A549 cell lines were cultured on DMEM media, meanwhile MDA-MB-231 and hepG-2 cell line were cultured on RBMI media. The” for “The”
as §2, §6, §7, §8

VEGFR-2 = target: T1, VEGFR-2 (Homo sapiens, UniProt P35968); test: In vitro VEGFR-2 inhibition (VEGFR-2 ELISA kit); assay type: biochemical; conditions: for IC50: ELISA kit; for HillSlope (best-fit value) / LogIC50 (best-fit value): dose-response curve fit, raw data S.5
T1 construct: purchased
T1 sequence (P35968 20-1356): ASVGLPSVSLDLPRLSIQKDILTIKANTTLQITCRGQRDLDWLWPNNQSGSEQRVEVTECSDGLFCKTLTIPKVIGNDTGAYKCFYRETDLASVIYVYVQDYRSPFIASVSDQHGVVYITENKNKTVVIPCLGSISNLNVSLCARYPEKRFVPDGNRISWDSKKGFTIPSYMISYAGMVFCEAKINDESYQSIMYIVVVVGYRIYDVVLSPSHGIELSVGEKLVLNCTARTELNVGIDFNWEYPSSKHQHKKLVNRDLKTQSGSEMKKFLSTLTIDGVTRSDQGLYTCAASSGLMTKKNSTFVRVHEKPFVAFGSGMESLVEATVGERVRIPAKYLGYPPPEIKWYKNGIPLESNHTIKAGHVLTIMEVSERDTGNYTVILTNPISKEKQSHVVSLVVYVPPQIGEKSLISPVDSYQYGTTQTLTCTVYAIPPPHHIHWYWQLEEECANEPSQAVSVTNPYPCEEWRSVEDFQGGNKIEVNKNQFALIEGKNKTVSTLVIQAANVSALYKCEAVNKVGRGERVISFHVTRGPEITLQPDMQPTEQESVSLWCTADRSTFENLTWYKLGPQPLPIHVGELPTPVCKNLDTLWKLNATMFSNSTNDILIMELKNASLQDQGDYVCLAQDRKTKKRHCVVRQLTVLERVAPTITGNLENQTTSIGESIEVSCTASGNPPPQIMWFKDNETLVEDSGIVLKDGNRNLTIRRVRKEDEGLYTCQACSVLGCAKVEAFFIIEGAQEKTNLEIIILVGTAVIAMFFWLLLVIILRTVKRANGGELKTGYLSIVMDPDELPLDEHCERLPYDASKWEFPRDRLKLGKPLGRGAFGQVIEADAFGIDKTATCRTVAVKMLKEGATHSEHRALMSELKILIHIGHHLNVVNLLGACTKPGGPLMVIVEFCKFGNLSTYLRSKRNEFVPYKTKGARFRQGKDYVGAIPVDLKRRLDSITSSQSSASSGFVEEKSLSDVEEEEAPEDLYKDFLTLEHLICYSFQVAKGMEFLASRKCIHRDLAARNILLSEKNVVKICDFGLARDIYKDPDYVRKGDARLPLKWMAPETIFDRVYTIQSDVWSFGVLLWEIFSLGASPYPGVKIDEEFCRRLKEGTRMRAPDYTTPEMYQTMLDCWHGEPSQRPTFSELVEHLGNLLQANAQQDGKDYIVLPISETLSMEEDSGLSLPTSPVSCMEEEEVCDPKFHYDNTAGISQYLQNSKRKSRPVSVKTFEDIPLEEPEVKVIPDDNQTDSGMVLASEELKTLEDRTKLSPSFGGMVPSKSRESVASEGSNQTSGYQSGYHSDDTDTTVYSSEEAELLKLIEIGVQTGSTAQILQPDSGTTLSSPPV
Experimental: Compounds 10a, b and 14a-c were evaluated for their VEGFR-2inhibitory activity.
VEGFR-2 ELISA kit was used in this test as described in S.1.3. Section in S1 File. […]
S.1.3. In vitro VEGFR-2 kinase assay
All the synthesized compounds were tested for its inhibitory activity against VEGFR-2. Human VEGFR-2 ELISA kit (Enzyme-Linked Immunosorbent Assay) was utilized in this test. At first, specific antibody for VEGFR-2 was seeded on a 96-well plate and 100 μL of the standard solution or the tested compound was added, all were incubated at room temperature for 2.5 h. Then washed, 100 μL of the prepared biotin antibody was added, then incubated at room temperature for additional 1 h. and washed. Then, 100 μL of streptavidin solution was added and incubated for 45 min. at room temperature. Washed again, 100 μL of TMB Substrate reagent was added and incubated for 30 min. at room temperature. 50 μL of the stop solution was added, then read at 450 nm immediately. The standard curve was drawn, concentrations on the X-axis and the absorbance

HepG2 = test: MTT anti-proliferative assay, HepG2; assay type: cell-based; conditions: for IC50: Homo sapiens, HepG2 cell line, MTT; for Selectivity index (HepG2): SI = Cytotoxicity against Vero cells / Cytotoxicity against HepG2 cell line
Experimental: as §3, §4, §5
as §1, with “CaCo-2, and A549 cell lines were cultured on DMEM media, meanwhile MDA-MB-231 and hepG-2 cell line were cultured on RBMI media. The” for “The”
as §2, §6, §7, §8

Bcl-2 = test: RT-qPCR gene expression in Caco-2, Bcl-2; assay type: cell-based; conditions: Caco-2, 1.5 μM, compared to control cells
From the text: (§9) The molecular anticancer mode of action of 14a was investigated by screening their ability to control the gene expression levels of Bcl2, Bcl-xl, TGF and Survivin genes as reported in S.1.6. Section in S1 File.
(§10) S.1.4. Selectivity index (SI) […]
(§11) S.1.6. Gene expression pattern alt ernation of cancer cell after 1 4a treatment The molecular anticancer mode of action of 14a was investigated by screening their ability to affect the gene expression levels of Bcl2, Bcl -xl, TGF and Survivin genes using specific forward and reverse primers and RTq-PCR technique (Table 1) in CaCo-2 cells (chosen as the most sensitive cancer cell line). After cellular treatment, CaCo-2 cell line was cultured into 12 well plates (6×10^3 cell/ml) for 24 h. with the sub-IC50 concentration of 14a. After treatment, total RNA extraction was performed using RNA extraction kit (Qiagen, Germany). Then, 1 ug of the obtained RNA was used to synthesiz cDNA using cDNA synthesis kit (Promega Corp., Madison, WI) as recommended by the manufacturer. Simultaneously, GAPDH forward and reverse primers (Table 1) were used to amplify the house keeping gene as internal control for standardization of PCR products. The RTq-PCR was done using SYBR Green dye (QuantiTect SYBR Green PCR Kits) and Light Cycler fluorimeter (Bio-RAD S1000 Tm thermal cycler). […]

Bcl-xl = test: RT-qPCR gene expression in Caco-2, Bcl-xl; assay type: cell-based; conditions: Caco-2, 1.5 μM, compared to control cells
From the text: as §9, §10, §11

TGF = test: RT-qPCR gene expression in Caco-2, TGF; assay type: cell-based; conditions: Caco-2, 1.5 μM, compared to control cells
From the text: as §9, §10, §11

Caco-2 cells = test: In vitro scratch (wound healing, migration) assay; assay type: cell-based; conditions: Caco-2, 1 μM
Experimental: The in vitro scratch assay[38] was used to assess the prospective of compound 14a to inhibit the ability of Caco-2 cells to migrate and heal. The basic idea behind this test is to create a scratch in a cancer cell line monolayer, measure the diameter at the start time and at regular intervals to investigate the potential of the cancer cell to migrate and heal. The findings of the treated cell line are then compared to the untreated cell line.
Cell Migration assay was conducted according to the reported protocol as described [59]in S.1.5. Section in S1 File.
S.1.4. Selectivity index (SI)
The selectivity index values of the tested compounds on cancer cells were calculated as described by Koch et al., with slight modifications; SI=IC50nc/IC50cc, where IC50nc: the IC50 value of the tested compound on normal cells and IC 50cc: IC50 of the tested compound on cancer cell line .
S.1.5. Wound healing assay (Migration assay)
CaCo-2 cells were grown to 95.0% confluency in a complete DMEM medium and then the wounds were formed using a plastic tip. […] After incubation at 37°C and 5.0% CO2 for 24h, the cells were washed with PBS and the wounds distance was determined as the scratch width of the treated and untreated groups using […]
S.1.6. […] The RTq-PCR was done using SYBR Green dye (QuantiTect SYBR Green PCR Kits) and Light Cycler fluorimeter (Bio-RAD S1000 Tm thermal cycler). […]

Survivin = test: RT-qPCR gene expression in Caco-2, Survivin; assay type: cell-based; conditions: Caco-2, 1.5 μM, compared to control cells
From the text: as §9, §10, §11

SMILES | IC50 at 24 h [1] [µM] | IC50 (Caco-2) [µM] | selectivity ratio [2] | IC50 (MDA-mb-231) [µM] | Selectivity index (MDA-MB-231) (MDA-mb-231) | IC50 (A549) [µM] | Selectivity index (A549) (A549) | IC50 (VEGFR-2) [nM] | HillSlope (best-fit value) (VEGFR-2) | LogIC50 (best-fit value) (VEGFR-2) | IC50 (HepG2) [µM] | Selectivity index (HepG2) (HepG2) | Bcl-2 gene expression level (Bcl-2) | Bcl-xl gene expression level (Bcl-xl) | TGF gene expression level (TGF) | Inhibition of migration and healing of Caco-2 cells (Caco-2 cells; 24 h) | Width of the scratch (Caco-2 cells; after 24 h, control scratch width at 0 hr 0.356 mm) [mm] | Survivin gene expression level (Survivin)
COc1ccc2[nH]c(=O)c(/C=C3\SC(=O)N(CC(=O)Nc4ccc(Cl)cc4)C3=O)cc2c1 [Compound 10a, (Z)-N-(4-Chlorophenyl) -2-(5-((6-methoxy-2-oxo-1,2-dihydroquinolin-3-yl)methylene) -2,4-dioxothiazolidin-3-yl)acetamide] | 194 ± 18.2 | 82.5 ± 7.2 | 2.35 | 132 ± 5.2 | 1.460 | 85 ± 7.5 | 2.280 | 65.2 ± 5.5 | -0.4587 | 1.814 Log (nM) | 174 ± 16.3 | 1.118 |  |  |  |  |  | 
COc1ccc2[nH]c(=O)c(/C=C3\SC(=O)N(CC(=O)Nc4cc(Cl)ccc4Cl)C3=O)cc2c1 [Compound 10b, (Z)-N-(2,5-Dichlorophenyl)-2-(5-((6-methoxy-2-oxo-1,2-dihydroquinolin-3-yl)methylene)-2,4-dioxothiazolidin-3-yl)acetamide] | 1580 ± 155 | 62.5 ± 5.4 | 25.3 | 31.5 ± 2.5 | 51.333 | 92.5 ± 8.6 | 17.080 | 165 ± 15.3 | -0.3514 | 2.216 Log (nM) | 71 ± 6.4 | 22.250 |  |  |  |  |  | 
O=C(CN1C(=O)SC(=C2C(=O)Nc3ccccc32)C1=O)Nc1ccc(Cl)cc1 [Compound 14a, N-(4-Chlorophenyl)-2-(2,4-dioxo-5-(2-oxoindolin-3-ylidene)thiazolidin-3-yl)acetamide] | 290 ± 28.3 | 1.5 ± 0.08 | 212 | 84 ± 7.3 | 3.375 | 170 ± 14.5 | 1.704 | 91.5 ± 8.2 | -0.4675 | 1.961 Log (nM) | 31.5 ± 2.5 | 9.196 | significant reduction; also recorded: significant down-regulation; also recorded: downregulate | non-detectable change | significant reduction; also recorded: significant down-regulation; also recorded: downregulate | inhibit the migration and healing of Caco-2 cells in a significant manner; also recorded: significantly inhibited the ability of cancer cells to migrate and heal | 0.293 | significant reduction; also recorded: significant down-regulation; also recorded: downregulate
O=C(CN1C(=O)SC(=C2C(=O)Nc3ccccc32)C1=O)Nc1cc(Cl)ccc1Cl [Compound 14b, N-(2,5-Dichlorophenyl)-2-(2,4-dioxo-5-(2-oxoindolin-3-ylidene)thiazolidin-3-yl)acetamide] | 1270 ± 126 | 74 ± 6.5 | 17.1 | 94.5 ± 8.4 | 13.555 | 292 ± 25.1 | 4.340 | 85.8 ± 7.6 | -0.5620 | 1.934 Log (nM) | 42.5 ± 3.2 | 29.917 |  |  |  |  |  | 
O=C(CN1C(=O)SC(=C2C(=O)Nc3ccccc32)C1=O)NCCc1ccccc1 [Compound 14c, 2-(2,4-Dioxo-5-(2-oxoindolin-3-ylidene)thiazolidin-3-yl)-N-phenethylacetamide] |  | 192 ± 18.1 | 5.07 | 484 ± 47.2 | 2.020 | 282 ± 27.3 | 3.463 | 81.5 ± 7.3 | -0.4220 | 1.911 Log (nM) | 92 ± 8.1 | 10.601 |  |  |  |  |  | 
COc1cccc2c1C(=O)c1c(O)c3c(c(O)c1C2=O)C[C@@](O)(C(=O)CO)C[C@@H]3O[C@H]1C[C@H](N)[C@H](O)[C@H](C)O1 [Doxorubicin, reference compound] |  | 3.5 ± 0.22 |  | 0.98 ± 0.001 |  | 86.4 ± 7.1 |  |  |  |  | 1.2 ± 0.07 |  |  |  |  |  |  | 
